“And” between values parts separate entries of the source, which are not always exact repeats. Identical values can stand only once. Like-named read-outs stand apart in the source and are kept apart here.
Experiments:
[1] = tested on: human colon carcinoma cells HCT-15; assay: Human colon tumor test in vitro, HCT-15 cell growth inhibition; type: cell-based; conditions: HCT-15 cells, compound day 1 to day 4; for IC50: Homo sapiens, HCT-15, 72 h, read-out: in vitro HCT-15 ID50 (50 percent inhibition of number of doublings); for in vitro HCT-15 ID50 (50 percent inhibition of number of doublings): 4320 min
Experimental: The compound of this invention were also tested for their ability to inhibit the growth of human colon carcinoma cells in vitro.
The human colon carcinoma cells, designated HCT-15, were derived from a specimen of an adenocarcinoma of human colon removed during surgery. The cells were grown in Roswell Park Medical Institute (RPMI) Medium 1640 supplemented with 10% heat inactivated fetal calf serum, penicillin (100 units/ml), streptomycin (100 μg/ml), gentamicin (20 μg/ml), fungizone (25 μg/ml), 0.075 percent sodium bicarbonate, […] 4-(2-hydroxyethyl)-1-piperazineethanesulfonic acid and […] N-tris(hydroxymethyl)methylglycine. […] On day 1 cells from sample dishes were harvested using trypsin (0.25%) treatment and counted with a hemocytometer to determine the number of cells per dish at the time of the addition of the compounds. Compounds of this invention were added in varying concentrations to other cultures. On day 4, treated and control cultures were harvested by trypsin treatment and the number of cells was determined. The number of doublings for the control cells was determined from the cell numbers on days 1 and 4. The ID50, the concentration of compound required to inhibit by 50 percent the number of doublings, was then calculated from the dose-response curve in which cell numbers were plotted on log-log paper against compound concentrations in micrograms per ml.

L1210 leukemia = assay: Lymphoid Leukemia L1210, survival of tumored mice; type: in vivo, CD2F1 mice; conditions: for response vs control in vivo at 300 mg/kg: 300 mg/kg i.p.; for response vs control in vivo at 200 mg/kg: 200 mg/kg i.p.; for response vs control in vivo at 150 mg/kg: 150 mg/kg i.p.; for response vs control in vivo at 50 mg/kg: 50 mg/kg i.p.; for response vs control in vivo at 25 mg/kg: 25 mg/kg i.p.; for response vs control in vivo at 12.5 mg/kg: 12.5 mg/kg i.p.
Experimental: The efficacy of the compounds of this invention against the transplanted mouse tumors was evaluated in test systems currently in use at the National Cancer Institute for the detection and assessment of anticancer activity. […] J. Cancer, 17, 129-142, (1981); Venditti, J. M., Seminars in Oncology, 8 (4) (1981); Goldin, A. and J. M. Venditti, in Recent Results in Cancer Research, 70, S. K. Carter and Y. Sakurai, Eds., Springer-Verlag, Berlin/Heidelberg, 1980].
The animals used in this test were CD2 F1 mice, all males weighing a minimum of 18 g and all within a 4 g weight range at the start of the test. The test group consisted of six mice. The tumor was implanted in each of the test mice by the intraperitoneal injection of 0.1 ml of diluted ascitic fluid containing 10^5 cells drawn from a mouse with L1210 leukemia. The test compounds were suspended in hydroxypropylcellulose or saline with Tween® 80 surfactant or dissolved in saline and injected intraperitoneally, at various doses, once daily for nine consecutive days starting on day one relative to the day of tumor inoculation (day 0). The control mice received injections of saline or hydroxypropylcellulose vehicle only. The mice were weighed and survivors were recorded on a regular basis for 30 days. The median survival time and the ratio of the median survival time for the treated (T) and control (C) mice was calculated. […] Drug effectiveness was assessed on the basis of the survival time. Results were expressed as a percentage of the control survival time (Median Survival Time: T/C ×100%). The criterion for effectiveness was determined by: T/C×100≥125 percent.

[2] = Mus musculus, L1210, ip, 720 h, read-out: L1210 Leukemia % T/C (median survival time)
[3] = Mus musculus, L1210, ip, 720 h, 100 mg/kg i.p., read-out: L1210 Leukemia % T/C (median survival time)
[4] = Mus musculus, L1210, ip, 720 h, 75 mg/kg i.p., read-out: L1210 Leukemia % T/C (median survival time)
[5] = Mus musculus, L1210, ip, 720 h, nonoptimal Q1DX9 instead of Q3DX9, read-out: L1210 Leukemia % T/C (median survival time)
[6] = Mus musculus, L1210, ip, 720 h, 100 mg/kg i.p., nonoptimal Q1DX9 instead of Q3DX9, read-out: L1210 Leukemia % T/C (median survival time)

| SMILES | IC50 [1] | in vitro HCT-15 ID50 (50 percent inhibition of number of doublings) [1] | other results |
| --- | --- | --- | --- |
| Cc1ccc(-c2ccc(-c3nc4ccc(F)cc4c(C(=O)O)c3C)cc2)cc1 [Example 30] | < 0.5 µg/mL | – | response vs control in vivo at 300 mg/kg (L1210 leukemia; [2]): 291% |
| Cc1c(-c2ccc(-c3ccc(F)cc3)cc2)nc2ccc(F)cc2c1C(=O)O [Example 31] | < 0.5 µg/mL | – | L1210 Leukemia % T/C (median survival time) (L1210 leukemia; 37.5 mg/kg i.p.): 218% |
| O=C(O)c1cc(-c2ccc(-c3ccccc3)cc2)nc2ccc(F)cc12 [Example 33] | < 0.5 µg/mL | – | response vs control in vivo at 200 mg/kg (L1210 leukemia; [2]): 170% |
| Cc1ccc(-c2ccc(-c3nc4ccc(F)cc4c(C(=O)O)c3C)cc2)cc1Cl [Example 38] | > 1 µg/mL | – | response vs control in vivo at 200 mg/kg (L1210 leukemia; [2]): 238% |
| CCc1ccc(-c2ccc(-c3nc4ccc(F)cc4c(C(=O)O)c3C)cc2)cc1 [Example 40] | > 1 µg/mL | – | response vs control in vivo at 100 mg/kg (L1210 leukemia; [3]): 157% |
| Cc1c(-c2cc(-c3ccccc3)cs2)nc2ccc(F)cc2c1C(=O)O [Example 44] | < 0.1 µg/mL | – | response vs control in vivo at 100 mg/kg (L1210 leukemia; [3]): 136% |
| Cc1c(-c2ccc(C3CCCCC3)cc2)nc2ccc(Br)cc2c1C(=O)O [Example 45] | – | 0.13 µg/mL | response vs control in vivo at 400 mg/kg (L1210 leukemia; Mus musculus, L1210, ip, 720 h, 400 mg/kg i.p., read-out: L1210 Leukemia % T/C (median survival time)): 160% |
| Cc1c(-c2ccc(-c3ccccc3)cc2)nc2cc(Cl)ccc2c1C(=O)O [Example 49] | > 5 µg/mL | – | response vs control in vivo at 200 mg/kg (L1210 leukemia; [2]): 174% |
| Cc1c(-c2ccc(Oc3ccccc3)cc2)nc2cc(Cl)ccc2c1C(=O)O [Example 50] | > 5 µg/mL | – | response vs control in vivo at 100 mg/kg (L1210 leukemia; [3]): 131% |
| CCc1ccc2nc(-c3ccc(-c4ccccc4)cc3)c(C)c(C(=O)O)c2c1 [Example 51] | < 0.5 µg/mL | – | L1210 Leukemia % T/C (median survival time) (L1210 leukemia; 75 mg/kg i.p.): 173% |
| Cc1c(-c2ccc(-c3ccccc3)cc2)nc2ccc(Br)cc2c1C(=O)O [Example 52] | < 0.5 µg/mL | – | response vs control in vivo at 75 mg/kg (L1210 leukemia; [4]): 189% |
| Cc1c(-c2ccc(Oc3ccccc3)cc2)nc2ccc(Br)cc2c1C(=O)O [Example 53] | < 0.5 µg/mL | – | response vs control in vivo at 75 mg/kg (L1210 leukemia; [4]): 136% |
| Cc1c(-c2ccc(-c3ccc(F)cc3)cc2)nc2cc(Cl)c(F)cc2c1C(=O)O [Example 54] | < 0.5 µg/mL | – | response vs control in vivo at 300 mg/kg (L1210 leukemia; [2]): 125% |
| Cc1c(-c2ccc(-c3ccccc3)cc2)nc2ccc(C(F)(F)F)cc2c1C(=O)O [Example 56] | < 0.5 µg/mL | – | response vs control in vivo at 75 mg/kg (L1210 leukemia; [4]): 176% |
| Cc1c(-c2ccc(Oc3ccccc3)cc2)nc2ccc(C(F)(F)F)cc2c1C(=O)O [Example 57] | < 0.5 µg/mL | – | response vs control in vivo at 150 mg/kg (L1210 leukemia; [2]): 197% |
| Cc1cc2c(C(=O)O)c(C)c(-c3ccc(-c4ccccc4)cc3)nc2cc1Cl [Example 58] | – | > 0.50 µg/mL | response vs control in vivo at 150 mg/kg (L1210 leukemia; [2]): 141% |
| Cc1cc2c(C(=O)O)c(C)c(-c3ccc(Oc4ccccc4)cc3)nc2cc1Cl [Example 59] | > 5 µg/mL | – | response vs control in vivo at 300 mg/kg (L1210 leukemia; [2]): 152% |
| Cc1c(-c2ccc(-c3ccccc3)cc2)nc2c(Br)cc(Br)cc2c1C(=O)O [Example 60] | < 0.5 µg/mL | – | response vs control in vivo at 300 mg/kg (L1210 leukemia; [2]): 192% |
| Cc1c(-c2ccc(-c3cccc(F)c3)cc2)nc2ccc(F)cc2c1C(=O)O [Example 73] | < 0.1 µg/mL | – | response vs control in vivo at 50 mg/kg (L1210 leukemia; [2]): 195% |

| SMILES | IC50 [1] | in vitro HCT-15 ID50 (50 percent inhibition of number of doublings) [1] | other results |
| --- | --- | --- | --- |
| Cc1c(-c2ccc(-c3ccccc3)cc2)nc2ccc(F)c(Cl)c2c1C(=O)O [Example 81, 2-(4-Biphenyl)-5-chloro-6-fluoro-3-methyl-4-quinolinecarboxylic acid] | < 0.5 µg/mL | – | response vs control in vivo at 25 mg/kg (L1210 leukemia; [2]): 191% |
| Cc1c(-c2ccc(-c3ccccc3)cc2)nc2cc(Cl)cc(Cl)c2c1C(=O)O [Example 82] | > 1 µg/mL | – | response vs control in vivo at 100 mg/kg (L1210 leukemia; [3]): 144% |
| Cc1ccc2nc(-c3ccc(-c4ccccc4)cc3)c(C)c(C(=O)O)c2c1Cl [Example 83] | > 1 µg/mL | – | response vs control in vivo at 100 mg/kg (L1210 leukemia; [3]): 198% |
| Cc1c(-c2ccc(-c3ccccc3)cc2)nc2cc(F)ccc2c1C(=O)O [Example 87] | < 0.5 µg/mL | – | response vs control in vivo at 100 mg/kg (L1210 leukemia; [3]): 146% |
| Cc1c(-c2ccc(C3CCCCC3)cc2)nc2ccc(Cl)cc2c1C(=O)O [Example 93] | – | 0.06 µg/mL and 0.04 µg/mL | response vs control in vivo at 50 mg/kg (L1210 leukemia; [5]): 101% |
| O=C(O)c1cc(-c2ccc(C3CCCCC3)cc2)nc2ccc(Cl)cc12 [Example 94] | – | 0.65 µg/mL | response vs control in vivo at 100 mg/kg (L1210 leukemia; [6]): 107% |
| O=C(O)c1cc(-c2ccc(C3CCCCC3)cc2)nc2ccc(F)cc12 [Example 95] | – | 0.04 µg/mL | response vs control in vivo at 100 mg/kg (L1210 leukemia; [6]): 108% |
| Cc1ccc2nc(-c3ccc(C4CCCCC4)cc3)c(C)c(C(=O)O)c2c1 [Example 96] | – | < 0.50 µg/mL | response vs control in vivo at 37.5 mg/kg (L1210 leukemia; Mus musculus, L1210, ip, 720 h, 37.5 mg/kg i.p., nonoptimal Q1DX9 instead of Q3DX9, read-out: L1210 Leukemia % T/C (median survival time)): 97% |
| CCCCCCCCCCc1ccc(-c2nc3ccc(F)cc3c(C(=O)O)c2C)cc1 [Example 97] | – | 0.14 µg/mL | response vs control in vivo at 25 mg/kg (L1210 leukemia; [5]): 110% |
| Cc1c(-c2ccc(Oc3ccccc3)cc2)nc2ccc(F)cc2c1C(=O)O [Example 101] | – | 0.41 µg/mL | response vs control in vivo at 50 mg/kg (L1210 leukemia; [2]): 154% |
| Cc1c(-c2ccc(-c3ccc(Br)cc3)cc2)nc2ccc(F)cc2c1C(=O)O [Example 102] | – | 1.0 µg/mL and 1.9 µg/mL | response vs control in vivo at 12.5 mg/kg (L1210 leukemia; [2]): 164% |
| Cc1c(-c2ccc(SC(C)C)cc2)nc2ccc(F)cc2c1C(=O)O [Example 103] | – | 0.17 µg/mL | response vs control in vivo at 200 mg/kg (L1210 leukemia; [5]): 108% |
| CCc1c(-c2ccc(C3CCCCC3)cc2)nc2ccc(C)cc2c1C(=O)O [Example 105] | – | 0.33 µg/mL | response vs control in vivo at 12.5 mg/kg (L1210 leukemia; [5]): 108% |
| Cc1c(-c2ccc(OCc3ccccc3)cc2)nc2ccc(F)cc2c1C(=O)O [Example 106] | – | 1.20 µg/mL | response vs control in vivo at 25 mg/kg (L1210 leukemia; [5]): 107% |
| CCc1c(-c2ccc(C(C)CC)cc2)nc2ccc(F)cc2c1C(=O)O (centres unmarked) [Example 107] | – | 0.09 µg/mL | response vs control in vivo at 25 mg/kg (L1210 leukemia; [5]): 116% |
| CCc1c(-c2ccc(-c3ccccc3)cc2)nc2ccc(F)cc2c1C(=O)O [Example 108] | – | 0.10 µg/mL | L1210 Leukemia % T/C (median survival time) (L1210 leukemia; 100 mg/kg i.p.): 166% |
| Cc1c(-c2ccc(-c3ccccc3)cc2)nc2ccc(Cl)cc2c1C(=O)O [Example 109] | – | < 0.50 µg/mL | response vs control in vivo at 100 mg/kg (L1210 leukemia; [3]): 172% |
| Cc1c(-c2ccc(Sc3ccccc3)cc2)nc2ccc(Cl)cc2c1C(=O)O [Example 111] | < 0.5 µg/mL | – | response vs control in vivo at 25 mg/kg (L1210 leukemia; [2]): 125% |

Reference: patent US5032597A, “Method of using phenylquinolinecarboxylic acids and derivatives for lymthoid leukemia treatment in a mammal” (priority 1987, dated 1991)
